# Reference: patent publication US20080269188A1, “Oatp-C Gene C463a Polymorphism Underlies Variable Response to Statin Therapy” (INSERM, priority 2005, published 2008)
# Marks after values point to notes of the source that are not given here.
# Assays:
# [1] = taken from Buse J., Clinical Diabetes 2003; cited from earlier work
# [2] = FAME study: plasma lipid response to Fluvastatin XL 80 mg in elderly patients with primary hypercholesterolemia, overall and by OATP-C C463A (Pro155Thr) genotype; format: in vivo, human
# Method: The characteristics of the study subjects have been previously reported.^26 Patients were enrolled in a large scale, randomized, double-blind, placebo-controlled multicenter study conducted in France, Italy, Spain, Belgium and Israel. Initially, the aim of this study was to investigate the efficacy and safety of extended-release (XL) Fluvastatin 80 mg once daily for up to one year in elderly patients with primary hypercholesterolemia. The study was approved by the relevant Ethic Committees, and informed consent Was given by all subjects before entering the study. Men or women, aged 70-85 years, with primary hypercholesterolemia (total cholesterol ≧251 mg/dL, triglycerides ≦407 mg/dL and LDL cholesterol ≧159 mg/dL after dietary intervention) were eligible for inclusion. […] OATP-C genotypes were determined in 420 subjects from the Fluvastatin arm of the study.
# For each subject, plasma lipid response was calculated based on values obtained at baseline (week—2) and 2 months after treatment. Laboratory methods for lipid and lipoprotein measurements are described elsewhere 26; all parameters were measured at a central laboratory. […] Endpoint fluorescence (FAM™, VIC® or both), corresponding to cleavage of the allele-specific probe (allelic discrimination) was measured using an ABI PRISM 7000 Sequence Detection System (Applied Biosystems, Foster City, Calif.). […]
# [3] = ALERT trial (renal transplantation): lipid parameters after 6 weeks of fluvastatin by OATP-C Pro155Thr genotype; format: in vivo, human; design: TC_Visit 2 / TC_Diff / TG_Visit 2 / TG_Diff / HDL_Visit 2 / HDL_Diff / LDL_Visit 2 / LDL_Diff: unit not given here; details: LSMEAN; for HDL_% change / LDL_% change / TC_% change / TG_% change: 6 weeks; for HDL_Visit 2 / LDL_Visit 2 / TC_Visit 2 / TG_Visit 2: visit 2 (6 weeks of treatment), 40 mg daily; for HDL_Diff / LDL_Diff / TC_Diff / TG_Diff: week 6 minus visit zero
# Method: Given the success of statins, and fluvastatin in particular, in lowering lipid levels and reducing cardiovascular disease in the general population, the Assessment of LEscol (Fluvastatin) in Renal Transplantation (ALERT) clinical trial was performed (Holdaas et al., 2003). This multicenter, randomized, double-blind placebo-controlled study followed […] renal transplant patients for 5-6 years. Patients were assigned to a placebo or fluvastatin (40 mg daily for two years, and 80 mg daily for the remainder of the study) group, and monitored in laboratory blood analysis every six months and annual electrocardiography.
# The Alert trial was conducted in centres in the Scandinavian countries, UK, Germany, Belgium, Switzerland and Canada, with only minimal number of non-Caucasian patients. The demographic and baseline LDL-C characteristics are similar between the fluvastatin treatment and the placebo groups, as illustrated in Table 5.
# Blood samples from each consenting patient were collected at the individual trial sites. The genomic DNA of each patient was extracted from the blood using the […]™ DNA Isolation Kit (D-50K) and then genotyping was performed. Ultimately, 1375 ALERT samples were genotyped: 693 from the Fluvastatin group (of 1050 total patients) and 682 from the placebo group (of 1052 total patients).
# The primary efficacy variables tested were: LDL cholesterol at visit 2 (6 weeks of treatment) and Change in LDL cholesterol. The change in LDL cholesterol was calculated as the difference between the week 6 value and the visit zero value, for patients for whom both numbers were available. Additional efficacy variables tested in the full set of genotypes were: • HDL cholesterol at visit 2 (6 Weeks of treatment) • Change in HDL cholesterol • Total cholesterol at visit 2 (6 weeks of treatment) • Change in total cholesterol • Triglycerides at visit 2 (6 weeks of treatment) • Change in triglycerides.
# Association tests used categorical genotypes as the independent variable, with no assumption about dominance, and the various efficacy variables as dependent variables. Tests of continuous dependent variables used an ANCOVA analysis. No adjustment was made for multiple testing effect.
# The relevant association test for each phenotype was first performed in the Fluvastatin treated patient set. SNP-phenotype associations with a threshold of p<0.05 were then tested separately in the placebo set to determine Fluvastatin-related pharmacogenetic effect.
structure (smiles),measurement,setting,value
"CC(C)c1c(C(=O)Nc2ccccc2)c(-c2ccccc2)c(-c2ccc(F)cc2)n1CC[C@@H](O)C[C@@H](O)CC(=O)O [Atorvastatin, atorvastatin]",Equipotent dose,[1],10 mg
"CC(C)n1c(/C=C/C(O)CC(O)CC(=O)O)c(-c2ccc(F)cc2)c2ccccc21 (stereo not shown) [Fluvastatin, fluvastatin]","LDL-C, % Change","[2]; C463A genotype AA (Thr/Thr), n=15, baseline vs 2 months, mean ± SD",−41%
same,absolute gain in LDL-C reduction,[2]; homozygous Thr/Thr vs homozygous wild-type Pro/Pro,10%
same,HDL_% change,"[3]; Pro155Thr genotype AA, n=16",18%
same,LDL_% change,"[3]; Pro155Thr genotype AA, n=16",−34%
same,TC_% change,"[3]; Pro155Thr genotype AA, n=16",−20%
same,TG_% change,"[3]; Pro155Thr genotype AA, n=16",8%
same,HDL_Visit 2,"[3]; Pro155Thr genotype AA, n=16",1.58
same,LDL_Visit 2,"[3]; Pro155Thr genotype AA, n=16",2.68
same,TC_Visit 2,"[3]; Pro155Thr genotype AA, n=16",5.17
same,TG_Visit 2,"[3]; Pro155Thr genotype AA, n=16",2.12
same,HDL_Diff,"[3]; Pro155Thr genotype AA, n=16",0.23
same,LDL_Diff,"[3]; Pro155Thr genotype AA, n=16",−1.45
same,TC_Diff,"[3]; Pro155Thr genotype AA, n=16",−1.27
same,TG_Diff,"[3]; Pro155Thr genotype AA, n=16",−0.037
same,HDL_% change,"[3]; Pro155Thr genotype AC, n=167",8%
same,LDL_% change,"[3]; Pro155Thr genotype AC, n=167",−23%
same,TC_% change,"[3]; Pro155Thr genotype AC, n=167",−16%
same,TG_% change,"[3]; Pro155Thr genotype AC, n=167",−3%
same,HDL_Visit 2,"[3]; Pro155Thr genotype AC, n=167",1.4
same,LDL_Visit 2,"[3]; Pro155Thr genotype AC, n=167",3.12
same,TC_Visit 2,"[3]; Pro155Thr genotype AC, n=167",5.39
same,TG_Visit 2,"[3]; Pro155Thr genotype AC, n=167",1.98
same,HDL_Diff,"[3]; Pro155Thr genotype AC, n=167",0.05
same,LDL_Diff,"[3]; Pro155Thr genotype AC, n=167",−1.02
same,TC_Diff,"[3]; Pro155Thr genotype AC, n=167",−1.05
same,TG_Diff,"[3]; Pro155Thr genotype AC, n=167",−0.181
same,HDL_% change,"[3]; Pro155Thr genotype CC, n=468",9%
same,LDL_% change,"[3]; Pro155Thr genotype CC, n=468",−28%
same,TC_% change,"[3]; Pro155Thr genotype CC, n=468",−18%
same,TG_% change,"[3]; Pro155Thr genotype CC, n=468",−5%
same,HDL_Visit 2,"[3]; Pro155Thr genotype CC, n=468",1.43
same,LDL_Visit 2,"[3]; Pro155Thr genotype CC, n=468",2.91
same,TC_Visit 2,"[3]; Pro155Thr genotype CC, n=468",5.21
same,HDL_Diff,"[3]; Pro155Thr genotype CC, n=468",0.08
same,LDL_Diff,"[3]; Pro155Thr genotype CC, n=468",−1.22
same,TC_Diff,"[3]; Pro155Thr genotype CC, n=468",−1.23
same,TG_Diff,"[3]; Pro155Thr genotype CC, n=468",−0.226
same,Equipotent dose,[1],80* mg
"CC[C@H](C)C(=O)O[C@H]1C[C@@H](C)C=C2C=C[C@H](C)[C@H](CC[C@@H]3C[C@@H](O)CC(=O)O3)[C@H]21 [Lovastatin, lovastatin]",Equipotent dose,[1],60* mg
